According to patent US7214682B2, “Substituted 2-pyridinyl-6,7,8,9-tetrahydropyrimido{1,2-a}pyrimidin-4-one and 7-pyridinyl-2,3-dihydroimidazo{1,2-a}pyrimidin-5(1h)one derivatives” (Sanofi-aventis, priority 2001, dated 2007):

Assays:
GSK3β = GSK3β (Homo sapiens, UniProt P49841); test: Inhibitory activity against GSK3β (TPK1), 33P-ATP phosphorylation of GS1 peptide; assay type: biochemical; conditions: TPK1 = GSK3β (b5); table 4
Procedure: Two different protocols can be used.
In a first protocol: 7.5 μM of prephosphorylated GS1 peptide and 10 μM ATP (containing 300,000 cpm of 33P-ATP) were incubated in 25 mM Tris-HCl, pH 7.5, 0.6 mM DTT, 6 mM MgCl2, 0.6 mM EGTA, 0.05 mg/ml BSA buffer for 1 hour at room temperature in the presence of GSK3β (total reaction volume: 100 microliters).
In a second protocol: 4.1 μM of prephosphorylated GS1 peptide and 42 μM ATP (containing 260,000 cpm 33P-ATP) were incubated in 80 mM Mes-NaOH, pH 6.5, 1 mM Mg acetate, 0.5 mM EGTA, 5 mM 2-mercaptoethanol, 0.02% Tween 20, 10% glycerol buffer for 2 hours at room temperature in the presence of GSK3β.
Inhibitors were solubilized in DMSO (final solvent concentration in the reaction medium, 1%).
The reaction was stopped with 100 microliters of a solution made of 25 g polyphosphoric acid (85% P2O5), 126 ml 85% H3PO4, H2O to 500 ml and then diluted to 1:100 before use. An aliquot of the reaction mixture was then transferred to Whatman P81 cation exchange filters and rinsed with the solution described above. Incorporated 33P radioactivity was determined by liquid scintillation spectrometry.
The phosphorylated GS-1 peptide had the following sequence: NH2-[…](P)EDEE-COOH.
The GSK3β inhibitory activity of the compounds of the present invention are expressed in IC50, and as an illustration the range of IC50's of the compounds in table 1 is between 4 nanomolar to 2 micromolar concentrations, of the compounds in table 2 is between 30 nanomolar to 2 micromolar concentrations and of the compounds in table three is between 1 nanomolar to 2 micromolar.

cdk5/p25 = cdk5/p25 (Homo sapiens, UniProt Q00535); test: Inhibitory activity against cdk5/p25 (TPK2), 33P-ATP phosphorylation of Histone H1; assay type: biochemical; conditions: TPK2 = cdk5/p25 (b7); table 4
Sequence of cdk5/p25 (Q00535 whole entry, species assumed): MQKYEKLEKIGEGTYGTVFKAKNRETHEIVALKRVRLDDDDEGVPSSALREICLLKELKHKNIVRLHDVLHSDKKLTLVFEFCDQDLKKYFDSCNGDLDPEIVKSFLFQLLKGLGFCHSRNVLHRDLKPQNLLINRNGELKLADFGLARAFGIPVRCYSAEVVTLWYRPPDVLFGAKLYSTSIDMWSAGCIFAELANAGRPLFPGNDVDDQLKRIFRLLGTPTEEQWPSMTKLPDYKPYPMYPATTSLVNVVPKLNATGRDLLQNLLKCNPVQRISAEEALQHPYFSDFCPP
Sequence of cdk5/p25 (Q15078 99-307 partner limits assumed, species assumed): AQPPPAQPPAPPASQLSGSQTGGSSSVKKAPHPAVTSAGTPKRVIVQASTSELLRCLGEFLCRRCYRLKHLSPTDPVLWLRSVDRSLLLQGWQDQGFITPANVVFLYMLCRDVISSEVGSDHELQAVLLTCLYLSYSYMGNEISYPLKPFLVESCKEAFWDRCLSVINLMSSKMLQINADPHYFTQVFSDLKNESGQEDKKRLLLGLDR
Procedure: The following protocol may be used: 0.4 mg/ml Histone H1 and 10 μM ATP (containing 300,000 cpm of ^33P-ATP) were incubated in 50 mM Hepes, pH 7.2, 1 mM DTT, 1 mM MgCl2, 1 mM EGTA, 0.02% Tween 20 buffer for 1 hour at room temperature in the presence of cdk5/p25 (total reaction volume: 100 microliters). Inhibitors were solubilized in DMSO (final solvent concentration in the reaction medium, 1%). The reaction was stopped with 100 microliters of a solution of 25 g polyphosphoric acid (85% P2O5), 126 ml 85% H3PO4, H2O to 500 ml (diluted to 1:100 before use). An aliquot of the reaction mixture was then transferred to Whatman P81 cation exchange filters and rinsed with the solution described above. Incorporated ^33P radioactivity was determined by liquid scintillation spectrometry. The cdk5/p25 inhibitory activity of the compounds of the present invention are expressed as IC50 values. Typically, 3-fold serial dilutions of the inhibitor over at least a 1000-fold concentration range are used.

Sequence of GSK3β (P49841 whole entry, species assumed): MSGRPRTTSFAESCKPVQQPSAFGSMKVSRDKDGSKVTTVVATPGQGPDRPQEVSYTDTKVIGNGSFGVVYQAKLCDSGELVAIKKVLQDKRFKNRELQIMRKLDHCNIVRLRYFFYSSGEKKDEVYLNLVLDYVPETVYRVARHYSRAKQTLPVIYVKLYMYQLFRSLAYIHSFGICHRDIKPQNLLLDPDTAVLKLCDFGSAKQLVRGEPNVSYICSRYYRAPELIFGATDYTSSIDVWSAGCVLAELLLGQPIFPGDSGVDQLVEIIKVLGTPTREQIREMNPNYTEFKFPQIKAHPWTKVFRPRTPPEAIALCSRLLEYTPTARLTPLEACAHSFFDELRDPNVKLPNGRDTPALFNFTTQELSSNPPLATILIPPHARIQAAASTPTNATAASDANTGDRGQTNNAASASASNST

IC50 (GSK3β) [nM]	IC50 (cdk5/p25) [nM]	melting point [°C]	Compound
6	> 1000	–	CO[C@H](CN1CCCn2c1nc(-c1ccncc1)c(F)c2=O)c1ccccc1 [Table 1 Compound 45, 9-(2(S)-Methoxy-2-phenyl-ethyl)-3-fluoro-2-(pyridin-4-yl)-6,7,8,9-tetrahydro-4H-pyrimido[1,2-a]pyrimidin-4-one]
–	–	201 to 202	CC1CCn2c(nc(-c3ccncc3)c(F)c2=O)N1CC(=O)c1ccccc1 (racemic) [Table 3 Compound 18, 3-Fluoro-8-methyl-9-(2-oxo-2-phenyl-ethyl)-2-(pyridin-4-yl)-6,7,8,9-tetrahydro-pyrimido[1,2-a]pyrimidin-4-one]
60	67	–	O=c1cc(-c2ccncc2)nc2n1CC(F)(F)CN2C[C@@H](O)c1ccccc1 [Table 1 Compound 5, 9-(2(S)-Hydroxy-2-phenyl-ethyl)-7,7-difluoro-2-(pyridin4-yl)-6,7,8,9-tetrahydro-4H-pyrimido[1,2-a]pyrimidin-4-one]
11	334	–	CC1(C)CN(C[C@@H](O)c2ccccc2)c2nc(-c3ccncc3)c(F)c(=O)n2C1 [Table 1 Compound 12, 9-(2(S)-Hydroxy-2-phenyl-ethyl)-3-fluoro-7,7-dimethyl-2-(pyridin-4-yl)-6,7,8,9-tetrahydro-4H-pyrimido[1,2-a]pyrimidin-4-one]
4	62	–	O=C(CN1CCCn2c1nc(-c1ccncc1)c(Cl)c2=O)c1ccccc1 [Table 1 Compound 39, 9-(2-Oxo-2-phenyl-ethyl)-3-chloro-2-(pyridin-4-yl)-6,7,8,9-tetrahydro-4H-pyrimido[1,2-a]pyrimidin-4-one]
1	> 1000	–	Cc1ccc([C@H](O)CN2c3nc(-c4ccncc4)cc(=O)n3CCC2(C)C)cc1 [Table 3 Compound 32, 9-(2(S)-Hydroxy-2-p-tolyl-ethyl)-8,8-dimethyl-2-(pyridin-4-yl)-6,7,8,9-tetrahydro-pyrimido[1,2-a]pyrimidin-4-one]
5	77	–	O=C(CN1CCCn2c1nc(-c1ccncc1)c(Br)c2=O)c1ccccc1 [Table 1 Compound 40, 9-(2-Oxo-2-phenyl-ethyl)-3-bromo-2-(pyridin-4-yl)-6,7,8,9-tetrahydro-4H-pyrimido[1,2-a]pyrimidin-4-one]
4	344	–	CC1CCn2c(nc(-c3ccncc3)cc2=O)N1C[C@@H](O)c1ccccc1 (mixture of isomers) [Table 3 Compound 7, 9-[2(S)-Hydroxy-2-phenyl-ethyl]-8-methyl-2-(pyridin-4-yl)-6,7,8,9-tetrahydro-pyrimido[1,2-a]pyrimidin-4-one]
28	154	–	O=c1c(Cl)c(-c2ccncc2)nc2n1CCCN2C[C@@H](O)c1ccccc1 [Table 1 Compound 42, 9-(2(S)-Hydroxy-2-phenyl-ethyl)-3-chloro-2-(pyridin-4-yl)-6,7,8,9-tetrahydro-4H-pyrimido[1,2-a]pyrimidin-4-one]
6	> 1000	–	O=c1c(F)c(-c2ccncc2)nc2n1CCCN2C[C@@H](O)c1ccccc1 [Table 1 Compound 44, 9-(2(S)-Hydroxy-2-phenyl-ethyl)-3-fluoro-2-(pyridin-4-yl)-6,7,8,9-tetrahydro-4H-pyrimido[1,2-a]pyrimidin-4-one]
4	4600	–	O=C(CN1CCCn2c1nc(-c1ccncc1)c(F)c2=O)c1cccc(F)c1 [Table 1 Compound 37, 9-[2-Oxo-2-(3-fluorophenyl)-ethyl]-3-fluoro-2-(pyridin-4-yl)-6,7,8,9-tetrahydro-4H-pyrimido[1,2-a]pyrimidin-4-one]
